Assay results taken from patent US20080213249A1, “Use of Retro-Aldol Reaction to Generate Reactive Vinyl Ketone for Attachment to Antibody Molecules by Michael Addition Reaction for Use in Immunostaining and Immunotargeting” (THE SCRIPPS RESEARCH INSITUTE, priority 2006, published 2008).

What was measured:
[1] = system: HIV primary isolates and laboratory-adapted strains; conditions: cited from earlier work
antibody 38C2 = assay: Inactivation of the catalytic (aldolase) activity of antibody 38C2, fluorescence assay with methadol as substrate; assay type: biochemical, mouse; conditions: preliminary studies, unpublished results
Experimental: To assess the potential of 2a, 3a, 2c, and 3c as programming agents, these compounds were separately mixed with antibody 38C2 at a ratio of 2:1, and the mixtures were incubated at 37° C. for 2 h. A fluorescence assay, based on using methadol as the substrate, was used to assess time-dependent inactivation of the catalytic activity of the antibody (14). Inactivation of aldolase activity should be indicative of modification of the catalytic lysine residue and, thus, chemical programming of the antibody. In the absence of the programming agents, 38C2 rapidly catalyzed the retro-aldol reaction of methadol to produce the fluorescent product 6-methoxy-2-naphthaldehyde. […] (The cpAb 38C2 using targeting agents 2a or 3a were named as 38C2-2b and 38C2-3b, respectively, based on the fact that compounds 2b and 3b were the expected ligands that conjugated with 38C2. Similarly, the analogous chemically programmed 38C2 Fab (or cp38C2Fab) construct obtained from 3a was named as 38C2Fab-3b.) These observations clearly supported the assumption that vinyl ketones, 2b and 3b, produced in situ from their acetone adducts, reacted with the active site of the antibody and also reinforced the previously described construct formation from the analogous diketone compounds 2c and 3c.

| SMILES | anti-HIV activity [1] | inactivation of the antibody (antibody 38C2) |
| --- | --- | --- |
| C=C(C)[C@@H]1CC[C@]2(C(=O)NCCCCCCCC(=O)N[C@@H](CC(C)C)[C@H](O)CC(=O)O)CC[C@]3(C)[C@H](CC[C@@H]4[C@@]5(C)CC[C@H](O)C(C)(C)[C@@H]5CC[C@]43C)[C@@H]12 [IC9564] | can inhibit both HIV primary isolates and laboratory-adapted strains | – |
| C=CC(C)=O [methylvinyl ketone] | – | rapidly inactivated the antibody |
